Patent US8796325B2, “Metronidazole esters for treating rosacea” (Galderma Research & Development, priority 2010, dated 2014)
Entries after “also recorded” stand apart in the source; their conditions may differ.

Tests used:
[1] = system: human neonatal keratinocytes; assay: Stability evaluated on keratinocyte cultures; assay type: in vitro ADME; details: over 24 hours
Experimental: (§1) The stability on keratinocyte cultures is evaluated using human neonatal keratinocytes (Cell'N Tech) cultured in a 75 cm^2 flask and detached at 90-100% of confluence with vegetable trypsin (trypLE GIBCO). The compound of formula (I) was tested at 2 μM in the medium CNT-057 (Cell'N Tech) supplemented with 0.1% pluronic acid in 24-well plates. The final DMSO concentration is 0.1%. Degradation kinetics are performed with a Tecan EVO robot over 24 hours. The samples taken are then assayed by LC/MS/MS (Micromass) in comparison with a calibration range of the test product, prepared under the same conditions as the samples (⅓ culture medium and ⅔ methanol). The chromatographic conditions are optimized for each product. An assay of the appearance of metronidazole is also performed using these same samples.

[2] = Stability evaluated on keratinocyte cultures; assay type: in vitro ADME; details: human, human neonatal keratinocyte cultures; keratinocyte cultures; 2 μM in medium CNT-057 with 0.1% pluronic acid, 0.1% DMSO; degradation kinetics over 24 hours; LC/MS/MS; read-out: half-life time (t1/2) (converted)
Experimental: as §1

Q: For `Cc1ncc([N+](=O)[O-])n1CCOC(=O)c1cc(-c2ccc(F)cc2F)ccc1O` [metronidazole ester with diflunisal], which “stability / hydrolysis of the ester on keratinocyte cultures (in words)” value (from here on “stability / hydrolysis of the ester”) [1] is on record?
A: stable in the presence of keratinocytes; also recorded: do not become hydrolysed

Q: Which “stability / hydrolysis of the ester” value [1] does the source give for `COc1ccc2c(c1)c(CC(=O)OCCn1c([N+](=O)[O-])cnc1C)c(C)n2C(=O)c1ccc(Cl)cc1` [metronidazole ester with indomethacin] here?
A: stable in the presence of keratinocytes; also recorded: do not become hydrolysed

Q: With `Cc1ncc([N+](=O)[O-])n1CCOC(=O)c1cccnc1Nc1cccc(C(F)(F)F)c1` [metronidazole ester with niflumic acid] as the molecule, how does the “stability / hydrolysis of the ester” value [1] read?
A: stable in the presence of keratinocytes; also recorded: do not become hydrolysed

Q: Which “stability / hydrolysis of the ester” value [1] does the source give for `Cc1ncc([N+](=O)[O-])n1CCOC(=O)C1CCn2c(C(=O)c3ccccc3)ccc21` (stereo not shown) [metronidazole ester with ketorolac] here?
A: stable in the presence of keratinocytes; also recorded: do not become hydrolysed

Q: With `Cc1ncc([N+](=O)[O-])n1CCOC(=O)Cc1ccccc1Nc1c(Cl)cccc1Cl` [compound of formula (I), 2-(2-methyl-5-nitroimidazol-1-yl)ethyl [2-(2,6-dichlorophenylamino)phenyl]acetate] as the molecule, how does the “stability / hydrolysis of the ester” value [1] read?
A: specifically cleaved in keratinocytes

Q: And the half-life at 2 μM [2]?
A: 8 h

Q: What about the melting point of the same molecule?
A: 122 to 124 °C
